According to patent US11787802B2, “Dihydrobenzimidazolones for medical treatment” (C4 Therapeutics, Inc., priority 2017, dated 2023):

Molecular target: hCereblon(M1-L442)_hDDB1(M1-H1140) (Homo sapiens (Human), UniProt Q96SW2)
Assay: Fluorescence direct binding protocol (tryptophan fluorescence titration)
Details: fluorescence titration at 20° C., excited at 280 nm, recorded at 340 nm; protein 5.0 E−8 M; assay buffer 50 mM Hepes 7.4 200 mM NaCl; read-out: Fluorescence h-Cereblon_DDB1 Mean Kd_EQ
Method: Fluorescence Direct Binding Protocol
Determination of the affinities of compounds to protein containing one or more tryptophan is measurable by monitoring the fluorescence emission in direct mode. The measurements depending on the protein available amounts are performed either manually in a cuvette on ISS-PC1 photon counting spectrofluorometer or automatically in well plates on a fluorescence plate reader device. Fluorescence titrations are performed at 20° C. in the chosen binding assay buffer by using a defined constant protein concentration against ligand concentration variations. Small aliquots of known ligand concentration solubilized in DMSO were added and the fluorescence, excited at 280 nm, was recorded at 340 nm. The fluorescence intensity was corrected for protein dilution and for the filter effect (Birdsall et al.^69). The corrected fluorescence intensity was plotted against the ligand concentration and fitted using a four-parameter sigmoidal function, from which the equilibrium dissociation constant Kd was computed using the law of mass action assuming a 1:1 protein-ligand complex (Eftink, 1997^70).
Process • 1) Optimization of measurement parameters to minimize protein consumption and to minimize the dilution effect and the DMSO content • 2) Titration measurements of the protein against ligand by at least 12 titration steps to obtain a good s-curve fit • 3) Repeat the same titration measurements with the ligand alone to enable correction • 4) Check the stability of the protein once by titration against DMSO alone • 5) Determination of the molar extinction coefficients of the ligand at 280 and 340 nm with help of an UV-spectrophotometer • 6) Use Excel template for the correction of the measured raw data • 7) Use GraphPad Prism software for the quadratic binding fit and the KD evaluation.

Chain of hCereblon(M1-L442)_hDDB1(M1-H1140) (Q96SW2 whole entry): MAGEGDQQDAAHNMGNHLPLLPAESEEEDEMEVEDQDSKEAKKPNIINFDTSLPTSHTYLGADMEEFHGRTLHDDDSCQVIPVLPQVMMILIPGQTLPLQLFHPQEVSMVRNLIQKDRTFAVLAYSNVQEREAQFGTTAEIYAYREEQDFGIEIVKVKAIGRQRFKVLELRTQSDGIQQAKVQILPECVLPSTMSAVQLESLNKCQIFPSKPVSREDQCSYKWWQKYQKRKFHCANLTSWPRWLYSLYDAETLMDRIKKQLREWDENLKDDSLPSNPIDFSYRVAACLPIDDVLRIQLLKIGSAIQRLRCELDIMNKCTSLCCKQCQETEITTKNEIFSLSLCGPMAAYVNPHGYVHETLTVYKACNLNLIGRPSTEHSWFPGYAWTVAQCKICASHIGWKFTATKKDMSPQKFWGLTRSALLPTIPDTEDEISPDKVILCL
Chain of hCereblon(M1-L442)_hDDB1(M1-H1140) (Q16531 whole entry partner): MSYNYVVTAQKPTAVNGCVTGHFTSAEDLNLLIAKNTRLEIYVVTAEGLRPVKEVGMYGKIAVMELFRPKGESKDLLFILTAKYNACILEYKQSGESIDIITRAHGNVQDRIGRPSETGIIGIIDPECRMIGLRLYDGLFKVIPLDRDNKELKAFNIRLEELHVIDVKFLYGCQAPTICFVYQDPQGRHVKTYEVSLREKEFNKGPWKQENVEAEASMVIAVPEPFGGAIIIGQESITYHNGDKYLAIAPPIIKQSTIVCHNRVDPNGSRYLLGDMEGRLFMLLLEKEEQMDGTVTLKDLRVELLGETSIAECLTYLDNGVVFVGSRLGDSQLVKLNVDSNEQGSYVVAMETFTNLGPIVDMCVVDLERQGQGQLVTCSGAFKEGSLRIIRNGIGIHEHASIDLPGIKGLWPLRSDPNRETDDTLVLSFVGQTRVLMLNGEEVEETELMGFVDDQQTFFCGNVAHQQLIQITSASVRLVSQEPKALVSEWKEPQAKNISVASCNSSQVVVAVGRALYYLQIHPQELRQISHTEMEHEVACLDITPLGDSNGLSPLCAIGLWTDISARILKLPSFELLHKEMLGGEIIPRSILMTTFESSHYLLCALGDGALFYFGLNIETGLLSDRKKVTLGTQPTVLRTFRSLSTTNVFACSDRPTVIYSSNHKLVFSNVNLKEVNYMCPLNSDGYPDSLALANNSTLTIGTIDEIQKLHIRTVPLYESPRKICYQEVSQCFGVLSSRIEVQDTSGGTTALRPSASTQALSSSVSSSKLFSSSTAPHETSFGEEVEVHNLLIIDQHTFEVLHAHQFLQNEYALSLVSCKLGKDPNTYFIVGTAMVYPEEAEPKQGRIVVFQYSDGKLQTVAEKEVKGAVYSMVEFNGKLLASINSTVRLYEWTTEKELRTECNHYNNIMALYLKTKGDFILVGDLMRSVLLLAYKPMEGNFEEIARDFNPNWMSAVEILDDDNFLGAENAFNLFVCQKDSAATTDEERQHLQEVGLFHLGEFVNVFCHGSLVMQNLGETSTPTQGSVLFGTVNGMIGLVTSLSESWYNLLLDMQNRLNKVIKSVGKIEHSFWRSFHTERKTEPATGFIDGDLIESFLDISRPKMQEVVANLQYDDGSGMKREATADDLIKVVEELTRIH

| SMILES | Kd [nM] |
| --- | --- |
| Cn1cncc1-c1cc(-c2nc3ccccc3n2-c2ccc3c(c2)n(C)c(=O)n3C)c2ccccc2n1 [Example 31, 1′,3′-Dimethyl-2-(2-(1-methyl-1H-imidazol-5-yl)quinolin-4-yl)-1′,3′-dihydro-2′H-[1,5′-bibenzo[d]imidazol]-2′-one] | 7 |
| CC(C)c1nccn1-c1ccc2[nH]c(=O)[nH]c2c1 [Example 32, 5-(2-Isopropyl-1H-imidazol-1-yl)-1,3-dihydro-2H-benzo[d]imidazol-2-one] | 6 |
| O=C1CCCN1c1ccc2[nH]c(=O)[nH]c2c1 [Example 33, 5-(2-Oxopyrrolidin-1-yl)-1,3-dihydro-2H-benzo[d]imidazol-2-one] | 24 |
| CC(C)c1nc2ccccc2n1-c1ccc2c(c1)[nH]c(=O)n2C [Example 34, 2-Isopropyl-1′-methyl-1′,3′-dihydro-2′H-[1,5′-bibenzo[d]imidazol]-2′-one] | 19 |
| CC(C)c1nc2ccccc2n1-c1ccc2[nH]c(=O)n(C)c2c1 [Example 35, 2-Isopropyl-3′-methyl-1′,3′-dihydro-2′H-[1,5′-bibenzo[d]imidazol]-2′-one] | 24 |
| O=c1[nH]c2cnc(-c3ccc(F)cc3)cc2[nH]1 [Example 36, 6-(4-Fluoro-phenyl)-1,3-dihydro-imidazo[4,5-c]pyridin-2-one] | 77 |
| O=c1[nH]c2ccc(-c3cc(F)ccc3F)cc2[nH]1 [Example 37, 5-(2,5-Difluoro-phenyl)-1,3-dihydro-benzoimidazol-2-one] | 10 |
| O=c1[nH]c2ccc(-c3ccc(F)cc3F)cc2[nH]1 [Example 38, 5-(2,4-Difluoro-phenyl)-1,3-dihydro-benzoimidazol-2-one] | 82 |
| COc1ccc(Cc2ccc3[nH]c(=O)[nH]c3c2)cc1 [Example 39, 5-[(4-Methoxyphenyl)methyl]-1,3-dihydrobenzimidazol-2-one] | 6 |
| O=c1[nH]c2ccc(N3CCN(c4ccccn4)CC3)nc2[nH]1 [Example 40, 5-[4-(2-Pyridyl)piperazin-1-yl]-1,3-dihydroimidazo[4,5-b]pyridin-2-one] | 7 |
| O=c1[nH]c2ccc(-c3ccc(-n4cccc4)cc3)cc2[nH]1 [Example 41, 5-(4-Pyrrol-1-yl-phenyl)-1,3-dihydro-benzoimidazol-2-one] | 18 |
| O=c1[nH]c2ccc(-c3cccc4ncccc34)cc2[nH]1 [Example 42, 5-Quinolin-5-yl-1,3-dihydro-benzoimidazol-2-one] | 336 |
| CCOC(=O)c1ccc(NS(=O)(=O)c2ccc3[nH]c(=O)[nH]c3c2)cc1 [Example 43, Ethyl 4-((2-oxo-2,3-dihydro-1H-benzo[d]imidazole)-5-sulfonamido)benzoate] | 100 |
| Cn1c(=O)[nH]c2nc(-c3ccccc3)ccc21 [Example 44, 1-Methyl-5-phenyl-3H-imidazo[4,5-b]pyridin-2-one] | < 1 |
| CNC(=O)c1ccc2c(c1)nc(Cc1ccccc1OC)n2-c1ccc2[nH]c(=O)[nH]c2c1 [Example 45, 2-(2-Methoxybenzyl)-N-methyl-2′-oxo-2′,3′-dihydro-1′H-[1,5′-bibenzo[d]imidazole]-5-carboxamide] | 22 |
| CNC(=O)c1ccc2c(c1)nc(C(C)(C)C)n2-c1ccc2[nH]c(=O)[nH]c2c1 [Example 46, 2-(tert-Butyl)-N-methyl-2′-oxo-2′,3′-dihydro-1′H-[1,5′-bibenzo[d]imidazole]-5-carboxamide] | 10 |
| COC(=O)c1cccc2c1nc(C(C)C)n2-c1ccc2[nH]c(=O)[nH]c2c1 [Example 47, Methyl 2-isopropyl-2′-oxo-2′,3′-dihydro-1′H-[1,5′-bibenzo[d]imidazole]-4-carboxylate] | 20 |

| SMILES | Kd [nM] |
| --- | --- |
| COC(=O)c1ccc2nc(C(C)C)n(-c3ccc4[nH]c(=O)[nH]c4c3)c2c1 [Example 48, Methyl 2-isopropyl-2′-oxo-2′,3′-dihydro-1′H-[1,5′-bibenzo[d]imidazole]-6-carboxylate] | 11 |
| Cn1c(=O)n(C)c2cc(Nc3ccccc3[N+](=O)[O-])ccc21 [Example 49, 1,3-Dimethyl-5-((2-nitrophenyl)amino)-1,3-dihydro-2H-benzo[d]imidazol-2-one] | 23 |
| Cn1c(=O)n(C)c2cc(Nc3ccccc3N)ccc21 [Example 50, 5-((2-Aminophenyl)amino)-1,3-dimethyl-1,3-dihydro-2H-benzo[d]imidazol-2-one] | 11 |
| O=C(NC1CCNCC1)c1ccc2[nH]c(=O)[nH]c2c1 [Example 51, 2-Oxo-N-(4-piperidyl)-1,3-dihydrobenzimidazole-5-carboxamide] | 138 |
| Cn1c(=O)[nH]c2ccc(Nc3ccccc3N)cc21 [Example 52, 6-((2-Aminophenyl)amino)-1-methyl-1,3-dihydro-2H-benzo[d]imidazol-2-one] | 6 |
| Cn1c(=O)[nH]c2cc(Nc3ccccc3N)ccc21 [Example 53, 5-((2-Aminophenyl)amino)-1-methyl-1,3-dihydro-2H-benzo[d]imidazol-2-one] | 49 |
| COC(=O)c1cccc2c1CCN2C(=O)c1ccc2[nH]c(=O)[nH]c2c1 [Example 54, Methyl 1-(2-oxo-2,3-dihydro-1H-benzo[d]imidazole-5-carbonyl)indoline-4-carboxylate] | 25 |
| O=C(c1cnc2[nH]c(=O)[nH]c2c1)N1CCc2ccccc21 [Example 55, 6-(Indoline-1-carbonyl)-1,3-dihydro-2H-imidazo[4,5-b]pyridin-2-one] | < 1 |
| CC(=O)N1CCC(NC(=O)c2cnc3[nH]c(=O)[nH]c3c2)CC1 [Example 56, N-(1-Acetylpiperidin-4-yl)-2-oxo-2,3-dihydro-1H-imidazo[4,5-b]pyridine-6-carboxamide] | 2 |
| CNC(=O)c1ccc2c(c1)nc(-c1cccc(COC)c1)n2-c1ccc2[nH]c(=O)[nH]c2c1 [Example 57, 2-(3-(Methoxymethyl)phenyl)-N-methyl-2′-oxo-2′,3′-dihydro-1′H-[1,5′-bibenzo[d]imidazole]-5-carboxamide] | 7 |
| O=c1[nH]c2ccc(N3CCNCC3)cc2[nH]1 [Example 58, 5-(Piperazin-1-yl)-1,3-dihydro-2H-benzo[d]imidazol-2-one] | 12 |
| O=c1[nH]c2ccc(N3C[C@H]4CC[C@@H](C3)N4)cc2[nH]1 [Example 59, 5-[rac-(1S,5R)-3,8-diazabicyclo[3.2.1]octan-3-yl]-1,3-dihydrobenzimidazol-2-one] | 6 |
| CNC(=O)c1cccc2c1nc(C(C)C)n2-c1ccc2[nH]c(=O)[nH]c2c1 [Example 60, 2-Isopropyl-N-methyl-2′-oxo-2′,3′-dihydro-1′H-[1,5′-bibenzo[d]imidazole]-4-carboxamide] | 47 |
| O=c1[nH]c2ccc(-n3c(CO)nc4ccccc43)cc2[nH]1 [Example 61, 5-[2-(Hydroxymethyl)benzimidazol-1-yl]-1,3-dihydrobenzimidazol-2-one] | 29 |
| CC(=O)N1CCN(c2ccc3[nH]c(=O)[nH]c3c2)CC1 [Example 62, 5-(4-Acetylpiperazin-1-yl)-1,3-dihydro-2H-benzo[d]imidazol-2-one] | < 1 |
| CC(=O)N1[C@@H]2CC[C@H]1CN(c1ccc3[nH]c(=O)[nH]c3c1)C2 [Example 63, 5-[rac-(1S,5R)-8-Acetyl-3,8-diazabicyclo[3.2.1]octan-3-yl]-1,3-dihydrobenzimidazol-2-one] | 79 |
